According to publication PMC6140548 (Oncoimmunology, 2018):

Biological target: HLA-A02:01 (MHC-I) on the surface of TAP-deficient T2 cells (Homo sapiens, UniProt P04439, D140Y/D185E/D98H/E176V/E277Q/G131W/G231S/I119V/I121R/I166T/I218V/L300P/L318F/N151K/N90K/P208A/P217A/Q86G/Q94H/R138H/R169H/T345S)
Assay: Peptide binding assay using TAP deficient T2 cells
Assay type: cell-based
Conditions: PAX7-encoded 9-mer; statement of the discussion

affinity for HLA-A02:01 (in words): very high affinity
Sequence: GLVSSISRV
